This note sets out measurements from patent publication US20240109924A1, “IP4-4,6 SUBSTITUTED DERIVATIVE COMPOUNDS” (SANIFIT THERAPEUTICS, S.A., priority 2021, published 2024).

Molecules are shown by their SMILES. pEC50: −log10 of the molar value. Where a name gives a salt, the structure may show the parent alone.

A short description of the assay: In vitro inhibition of calcium phosphate crystallization in human plasma (spectrophotometric assay). In kind it is biochemical. The following applies: 0-100 μM, 1.5 mM phosphate, 12.5 mM calcium, pH 7.4, absorbance 550 nm, slope 6-24 min, read-out: Relative Potency. The method, then:
The in vitro efficacy of the IP4-4,6 substituted derivatives (e.g., Compounds 1 to 53) of the invention on the inhibition of calcium phosphate crystallization in human plasma samples was evaluated according to a spectrophotometric assay previously described in the art (Ferrer M, et al., Sci Rep 2017; 7:6858, doi:10.1038/s41598-017-07203-x).
A 96-well plate was employed. Plasma was spiked (1 volume of the IP4-4,6 substituted derivatives of the invention per 19 volumes of plasma) with increasing concentrations of the derivatives in the range of 0-100 μM. Plasma was then centrifuged at 10,000 g at rt and subsequently mixed with a mixture of 5 mM hydrogen phosphate and 41.67 mM calcium to attain final concentrations of 1.5 mM phosphate and 12.5 mM calcium, respectively. All reagent solutions were filtered, and pH adjusted to 7.4.
Crystallization of calcium phosphate was monitored spectrophotometrically for 30 min at rt by measuring the increments in absorbance at 550 nm using the Biotek Powerwave XS Microplate spectrophotometer (BioTek Instruments, Inc., Winooski, VT, US). The plate was incubated at rt in an orbital shaker and absorbance measured every 3 min.
Plasma crystallization was assessed based on slope measurement in the linear range between 6 and 24 min from plots of increase in absorbance versus logarithm of time. The efficacy of different myo-inositol phosphates derivatives in preventing in vitro formation of calcium phosphate crystals was assessed in human plasma samples using the slopes obtained between 6- and 24-min. Inhibition of crystallization was measured by comparing the slopes of the control sample (blank plasma) with those of samples containing the inhibitor as shown below: […]
As to `COCc1cn(CCCCCCOC2C(OP(=O)(O)O)C(OCCCCCCn3cc(C(=O)O)nn3)C(OP(=O)(O)O)C(OP(=O)(O)O)C2OP(=O)(O)O)nn1` (stereo not drawn) [Compound 41, 4-O-(6-(4-carboxy-1H-1,2,3-triazol-1-yl)hexyl)-6-O-(6-(4-(methoxymethyl)-1H-1,2,3-triazol-1-yl)hexyl)-myo-inositol-1,2,3,5-tetrakis(phosphate) nonasodium salt], the pEC50 was ≥ 5.30. Turning to `COC(=O)NCCCCCOC1C(OP(=O)(O)O)C(OCCCCCNC(=O)OC)C(OP(=O)(O)O)C(OP(=O)(O)O)C1OP(=O)(O)O` (stereo not drawn) [Compound 25, 4,6-O-bis(5-((methoxycarbonyl)amino)pentyl)-myo-inositol-1,2,3,5-tetrakis(phosphate) octasodium salt], the pEC50 was ≥ 5.30. The same measure for `CCCCCCCCCCOC1C(OP(=O)(O)O)C(OCCCCCCCCCC)C(OP(=O)(O)O)C(OP(=O)(O)O)C1OP(=O)(O)O` (stereo not drawn) [Compound 2, 4,6-O-didecyl-myo-inositol-1,2,3,5-tetrakis(phosphate) octasodium salt]: < 5.00. As to `COCCCn1cc(CO[C@@H]2[C@@H](OP(=O)(O)O)[C@H](OCc3cn(CCCOC)nn3)[C@@H](OP(=O)(O)O)[C@@H](OP(=O)(O)O)[C@H]2OP(=O)(O)O)nn1` [Compound 32, 4,6-O-bis((1-(3-methoxypropyl)-1H-1,2,3-triazol-4-yl)methyl)-myo-inositol-1,2,3,5-tetrakis(phosphate) octasodium salt], the pEC50 is ≥ 5.30. `O=C(O)c1cn(CCCCCCOC2C(OP(=O)(O)O)C(OCCCCCCn3cc(C(=O)O)nn3)C(OP(=O)(O)O)C(OP(=O)(O)O)C2OP(=O)(O)O)nn1` (stereo not drawn) [Compound 40, 4,6-O-(6-(4-carboxy-1H-1,2,3-triazol-1-yl)hexyl)-myo-inositol-1,2,3,5-tetrakis(phosphate) decasodium salt]: the pEC50 was ≥ 5.30. As for `COCCCOC1C(OP(=O)(O)O)C(OCCCOC)C(OP(=O)(O)O)C(OP(=O)(O)O)C1OP(=O)(O)O` (stereo not drawn) [Compound 10, 4,6-O-bis(3-methoxypropyl)-myo-inositol-1,2,3,5-tetrakis(phosphate) octasodium salt], the pEC50 is ≥ 5.30.

Turning to `O=P(O)(O)O[C@@H]1[C@@H](OCCCC(F)(F)F)[C@H](OP(=O)(O)O)[C@H](OP(=O)(O)O)[C@H](OP(=O)(O)O)[C@H]1OCCCC(F)(F)F` [Compound 22, 4,6-O-bis(4,4,4-trifluorobutyl)-myo-inositol-1,2,3,5-tetrakis(phosphate) octasodium salt], the pEC50 is ≥ 5.30.

In the case of `COCc1cn(CCCOC2C(OP(=O)(O)O)C(OCCCn3cc(COC)nn3)C(OP(=O)(O)O)C(OP(=O)(O)O)C2OP(=O)(O)O)nn1` (stereo not drawn) [Compound 36, 4,6-O-bis(3-(4-(methoxymethyl)-1H-1,2,3-triazol-1-yl)propyl)-myo-inositol-1,2,3,5-tetrakis(phosphate) octasodium salt], the pEC50 is 5.00 to 5.30. The same measure for `C#CCOC1C(OP(=O)(O)O)C(OCC#C)C(OP(=O)(O)O)C(OP(=O)(O)O)C1OP(=O)(O)O` (stereo not drawn) [Compound 53, 4,6-O-Dipropargyl-myo-inositol-1,2,3,5-tetrakis(phosphate) octasodium salt]: ≥ 5.30; for `O=C(O)CCCOC1C(OP(=O)(O)O)C(OCCCC(=O)O)C(OP(=O)(O)O)C(OP(=O)(O)O)C1OP(=O)(O)O` (stereo not drawn) [Compound 52, 4,6-O-bis(3-carboxypropyl)-myo-inositol-1,2,3,5-tetrakis(phosphate) decasodium salt]: ≥ 5.30. As for `O=C(NCCCOC1C(OP(=O)(O)O)C(OCCCNC(=O)NC2CCCC2)C(OP(=O)(O)O)C(OP(=O)(O)O)C1OP(=O)(O)O)NC1CCCC1` (stereo not drawn) [Compound 47, 4,6-O-bis(3-(3-cyclopentylureido)propyl)-myo-inositol-1,2,3,5-tetrakis(phosphate) octasodium salt], the pEC50 was ≥ 5.30. As to `O=P(O)(O)OC1C(OCCCCCn2cncn2)C(OP(=O)(O)O)C(OP(=O)(O)O)C(OP(=O)(O)O)C1OCCCCCn1cncn1` (stereo not drawn) [Compound 17, 4,6-O-bis(5-(1H-1,2,4-triazol-1-yl)pentyl)-myo-inositol-1,2,3,5-tetrakis(phosphate) octasodium salt], the pEC50 was < 5.00. In the case of `O=P(O)(O)OC1C(OCCCCCC(F)(F)F)C(OP(=O)(O)O)C(OP(=O)(O)O)C(OP(=O)(O)O)C1OCCCCCC(F)(F)F` (stereo not drawn) [Compound 23, 4,6-O-bis(6,6,6-trifluorohexyl)-myo-inositol-1,2,3,5-tetrakis(phosphate) octasodium salt], the pEC50 was < 5.00. In the case of `CCCNC(=O)NCCCCCOC1C(OP(=O)(O)O)C(OCCCCCNC(=O)NCCC)C(OP(=O)(O)O)C(OP(=O)(O)O)C1OP(=O)(O)O` (stereo not drawn) [Compound 30, 4,6-O-bis(5-(3-propylureido)pentyl)-myo-inositol-1,2,3,5-tetrakis(phosphate) octasodium salt], the pEC50 was ≥ 5.30.

With `CC(C)CCCOC1C(OP(=O)(O)O)C(OCCCC(C)C)C(OP(=O)(O)O)C(OP(=O)(O)O)C1OP(=O)(O)O` (stereo not drawn) [Compound 21, 4,6-O-bis(4-methylpentyl)-myo-inositol-1,2,3,5-tetrakis(phosphate) octasodium salt], the pEC50 is < 5.00. For `COC(=O)NCCCOC1C(OP(=O)(O)O)C(OCCCNC(=O)OC)C(OP(=O)(O)O)C(OP(=O)(O)O)C1OP(=O)(O)O` (stereo not drawn) [Compound 24, 4,6-O-bis(3-((methoxycarbonyl)amino)propyl)-myo-inositol-1,2,3,5-tetrakis(phosphate) octasodium salt], the pEC50 was < 5.00.

With `CCCCCCCCCCCCCCO[C@@H]1[C@@H](OP(=O)(O)O)[C@H](OCCCCCCCCCCCCCC)[C@@H](OP(=O)(O)O)[C@@H](OP(=O)(O)O)[C@H]1OP(=O)(O)O` [Compound 3, 4,6-O-di(tetradecyl)-myo-inositol-1,2,3,5-tetrakis(phosphate) octasodium salt], the pEC50 was ≥ 5.30.

For the compound `NCCCCCCCCCCO[C@@H]1[C@@H](OP(=O)(O)O)[C@H](OCCCCCCCCCCN)[C@@H](OP(=O)(O)O)[C@@H](OP(=O)(O)O)[C@H]1OP(=O)(O)O` [Compound 15, 4,6-O-bis(10-aminodecyl)-myo-inositol-1,2,3,5-tetrakis(phosphate) octasodium salt], the pEC50 was < 5.00. For `O=C(NCCCCCOC1C(OP(=O)(O)O)C(OCCCCCNC(=O)c2ccccc2)C(OP(=O)(O)O)C(OP(=O)(O)O)C1OP(=O)(O)O)c1ccccc1` (stereo not drawn) [Compound 48, 4,6-O-bis(5-benzamidopentyl)-myo-inositol-1,2,3,5-tetrakis(phosphate) octasodium salt], the pEC50 was < 5.00.

Take `CCCO[C@@H]1[C@@H](OP(=O)(O)O)[C@H](OCCC)[C@@H](OP(=O)(O)O)[C@@H](OP(=O)(O)O)[C@H]1OP(=O)(O)O` [Compound 4, 4,6-O-dipropyl-myo-inositol-1,2,3,5-tetrakis(phosphate) octasodium salt]: the pEC50 is ≥ 5.30. The same measure for `O=P(O)(O)OC1C(OCCCc2cccc(C(F)(F)F)c2)C(OP(=O)(O)O)C(OP(=O)(O)O)C(OP(=O)(O)O)C1OCCCc1cccc(C(F)(F)F)c1` (stereo not drawn) [Compound 44, 4,6-O-bis(3-(3-(trifluoromethyl)phenyl)propyl)-myo-inositol-1,2,3,5-tetrakis(phosphate) octasodium salt]: < 5.00; for `O=P(O)(O)OC1C(OCCCCCCCCCCO)C(OP(=O)(O)O)C(OP(=O)(O)O)C(OP(=O)(O)O)C1OCCCCCCCCCCO` (stereo not drawn) [Compound 7, 4,6-O-bis(10-hydroxydecyl)-myo-inositol-1,2,3,5-tetrakis(phosphate) octasodium salt]: < 5.00. Take `NCCCOC1C(OP(=O)(O)O)C(OCCCN)C(OP(=O)(O)O)C(OP(=O)(O)O)C1OP(=O)(O)O` (stereo not drawn) [Compound 13, 4,6-O-bis(3-aminopropyl)-myo-inositol-1,2,3,5-tetrakis(phosphate) octasodium salt]: the pEC50 is 5.00 to 5.30. In the case of `O=C(NCCCCCOC1C(OP(=O)(O)O)C(OCCCCCNC(=O)c2cccs2)C(OP(=O)(O)O)C(OP(=O)(O)O)C1OP(=O)(O)O)c1cccs1` (stereo not drawn) [Compound 49, 4,6-O-bis(5-(thiophene-2-carboxamido)pentyl)-myo-inositol-1,2,3,5-tetrakis(phosphate) octasodium salt] it was 5.00 to 5.30; in that of `COCCCCCCCCCOC1C(OP(=O)(O)O)C(OCCCCCCCCCOC)C(OP(=O)(O)O)C(OP(=O)(O)O)C1OP(=O)(O)O` (stereo not drawn) [Compound 12, 4,6-O-bis(9-methoxynonyl)-myo-inositol-1,2,3,5-tetrakis(phosphate) octasodium salt], < 5.00. Regarding `NC(=O)CCCOC1C(OP(=O)(O)O)C(OCCCC(N)=O)C(OP(=O)(O)O)C(OP(=O)(O)O)C1OP(=O)(O)O` (stereo not drawn) [Compound 26, 4,6-O-bis(4-amino-4-oxobutyl)-myo-inositol-1,2,3,5-tetrakis(phosphate) octasodium salt], the pEC50 is ≥ 5.30. Consider `COCCCCCCCCC#CCCCCCCCCCOC1C(OP(=O)(O)O)C(OCCCCCCCCCC#CCCCCCCCCOC)C(OP(=O)(O)O)C(OP(=O)(O)O)C1OP(=O)(O)O` (stereo not drawn) [Compound 20, 4,6-O-bis(19-methoxynonadec-10-yn-1-yl)-myo-inositol-1,2,3,5-tetrakis(phosphate) octasodium salt], for which the pEC50 is ≥ 5.30.
